In patent US20170362228A1, “TETRAHYDRO-PYRIDO[3,4-b]INDOLE ESTROGEN RECEPTOR MODULATORS AND USES THEREOF” (Genentech, Inc., priority 2016, published 2017):
Where two headings read alike, the source gives them in different places.

Key:
MCF7 cells = assay: In vitro cell proliferation assays (Examples 902 and 903), MCF7; assay type: cell-based; details: Homo sapiens
Procedure: Efficacy of estrogen receptor modulator compounds and chemotherapeutic compounds are measured by a cell proliferation assay employing the following protocol (Mendoza et al (2002) Cancer Res. 62:5485-5488).
The CellTiter-Glo® Luminescent Cell Viability Assay is a homogeneous method to determine the number of viable cells in culture based on quantitation of the ATP present, which signals the presence of metabolically active cells. The CellTiter-Glo® Assay is designed for use with multiwell plate formats, making it ideal for automated high-throughput screening (HTS), cell proliferation and cytotoxicity assays. The homogeneous assay procedure involves adding a single reagent (CellTiter-Glo® Reagent) directly to cells cultured in serum-supplemented medium. Cell washing, removal of medium or multiple pipetting steps are not required. The Cell Titer-Glo® Luminescent Cell Viability Assay, including reagents and protocol are commercially available (Promega Corp., Madison, Wis., Technical Bulletin TB288).
The assay assesses the ability of compounds to enter cells and inhibit cell proliferation. The assay principle is based on the determination of the number of viable cells present by quantitating the ATP present in a homogenous assay where addition of the Cell TiterGlo® reagent results in cell lysis and generation of a luminescent signal through the luciferase reaction. The luminescent signal is proportional to the amount of ATP present.
Procedure: Day 1—Seed Cell Plates (384-well black, clear bottom, microclear, TC plates with lid from Falcon #353962), Harvest cells, Seed cells at 1000 cells per 54 μl per well into 384 well Cell Plates for 3 days assay. Cell Culture Medium: RPMI or DMEM high glucose, 10% Fetal Bovine Serum, 2 mM L-Glutamine, P/S. Incubate 0/N (overnight) at 37° C., 5% CO2.
Day 2—Add Drug to Cells, Compound Dilution, DMSO Plates (serial 1:2 for 9 points). Add 20 μl of compound at 10 mM in the 2nd column of 96 well plate. Perform serial 1:2 across the plate (10 μl+20 μl 100% DMSO) for a total of 9 points using Precision Media Plates 96-well conical bottom polypropylene plates from Nunc (cat.#249946) (1:50 dilution). Add 147 μl of Media into all wells. Transfer 3 μl of DMSO+compound from each well in the DMSO Plate to each corresponding well on Media Plate using Rapidplate® (Caliper, a Perkin-Elmer Co.). For 2 drug combination studies, transfer one drug 1.5 μl of DMSO+compound from each well in the DMSO Plate to each corresponding well on Media Plate using Rapidplate. Then, transfer another drug 1.5 μl to the medium plate.
Drug Addition to Cells, Cell Plate (1:10 dilution): Add 6 μl of media+compound directly to cells (54 μl of media on the cells already). Incubate 3 days at 37° C., 5% CO2 in an incubator that will not be opened often.
Day 5—Develop Plates, Thaw Cell Titer Glo Buffer at room temperature: Remove Cell Plates from 37° C. and equilibrate to room temperature for about 30 minutes. Add Cell Titer-Glo® Buffer to Cell Titer-Glo® Substrate (bottle to bottle). Add 30 μl Cell Titer-Glo® Reagent (Promega cat.# G7572) to each well of cells. Place on plate shaker for about 30 minutes. Read luminescence on Analyst HT Plate Reader (half second per well).
Cell viability assays and combination assays: Cells were seeded at 1000-2000 cells/well in 384-well plates for 16 h. On day two, nine serial 1:2 compound dilutions were made in DMSO in a 96 well plate. The compounds were further diluted into growth media using a Rapidplate® robot (Zymark Corp., Hopkinton, Mass.). The diluted compounds were then added to quadruplicate wells in 384-well cell plates and incubated at 37° C. and 5% CO2. After 4 days, relative numbers of viable cells were measured by luminescence using Cell Titer-Glo® (Promega) according to the manufacturer's instructions and read on a Wallac Multilabel Reader® (PerkinElmer, Foster City). EC50 values were calculated using Prism® 4.0 software (GraphPad, San Diego). […]

[1] = molecular target: T1, estrogen receptor alpha (ESR1) (Homo sapiens, UniProt P03372); assay: Breast Cancer Cell ERa High Content Fluorescence Imaging Degradation Assay (Example 901); assay type: cell-based; details: Table 1a; MCF7 breast cancer cells, 4 hours; plateau of the maximal effect; DMSO and Fulvestrant define 0% and 100% changes in ESR1
T1 construct: endogenous in cells; host or cells: MCF7 breast cancer cells
T1 sequence (P03372 1-595): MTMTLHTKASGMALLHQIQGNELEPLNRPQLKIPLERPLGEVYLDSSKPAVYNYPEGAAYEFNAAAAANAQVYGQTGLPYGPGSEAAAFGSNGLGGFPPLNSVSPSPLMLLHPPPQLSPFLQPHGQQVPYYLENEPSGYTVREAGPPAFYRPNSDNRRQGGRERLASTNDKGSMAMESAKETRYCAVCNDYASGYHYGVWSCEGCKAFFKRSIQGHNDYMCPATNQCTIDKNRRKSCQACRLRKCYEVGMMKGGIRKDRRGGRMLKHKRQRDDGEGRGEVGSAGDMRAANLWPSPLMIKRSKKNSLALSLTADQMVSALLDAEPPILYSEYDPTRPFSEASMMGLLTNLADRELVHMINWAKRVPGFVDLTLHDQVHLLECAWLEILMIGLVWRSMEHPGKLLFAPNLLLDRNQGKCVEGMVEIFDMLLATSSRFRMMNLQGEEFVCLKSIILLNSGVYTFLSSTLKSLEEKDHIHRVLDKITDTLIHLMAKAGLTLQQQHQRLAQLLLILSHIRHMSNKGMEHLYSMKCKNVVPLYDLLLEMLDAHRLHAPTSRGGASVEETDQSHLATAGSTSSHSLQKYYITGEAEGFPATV
Procedure: MCF7 breast cancer cells were seeded on day 1 at a density of 10,000 cells per well in 384 well poly-lysine coated tissue culture plate (Greiner # T-3101-4), in 50 μL/well RPMI (phenol red free), 10% FBS (Charcoal stripped), containing L-glutamine. On day 2, compounds were prepared at 2 compound source concentrations: 100 μM and 1 μM (ultimately to give 2 overlapping titration curves), in a Labcyte low dead volume plate, 10 μL/well, and 10 μL of DMSO in designated wells for backfill, and 5 μM Fulvestrant (control compound) in designated wells. Compounds and controls were dispensed using a Labcyte Echo acoustic dispenser to dispense compounds with a predefined serial dilution (1.8×, 10 point, in duplicate) and appropriate backfill and control compounds (final total volume transferred was 417.5 nL and compound dispense volume ranges from 2.5 nL to 417.5 nL; 0.84% DMSO (v/v) final), ultimately producing a concentration range from 0.05 nM to 835 nM. Cell plates were incubated at 37° C., for 4 hours. Fixation and permeabilization were carried out using a Biotek EL406 plate washer and dispenser as follows. Cells were fixed by addition of 15 μL of 16% paraformaldehyde (Electron Microscopy Sciences #15710-S) directly to the 50 μL cell culture medium in each well using the peristaltic pump 5 μL cassette on a Biotek EL406 (final concentration of formaldehyde was 3.7% w/v). Samples were incubated 30 minutes. Well contents was aspirated and 50 μL/well of Phosphate Buffered Saline (PBS) containing 0.5% w/v bovine serum albumen, 0.5% v/v Triton X-100 (Antibody Dilution Buffer) was added to each well. Samples were incubated for 30 minutes. Well contents were aspirated and washed 3 times with 100 μL/well of PBS. Immunofluorescence staining of estrogen receptor alpha (ESR1) was carried out using a Biotek EL406 plate washer and dispenser as follows. The well supernatant was aspirated from the wells and 25 μL/well of anti-ESR1 mAb (F10) (Santa Cruz sc-8002) diluted 1:1000 in Antibody Dilution Buffer was dispensed. Samples were incubated for 2 hours at room temperature. Samples were washed 4 times with 100 μL/well of PBS. 25 uL/well of secondary antibody solution (Alexafluor 488 conjugate anti-mouse IgG (LifeTechnologies #A21202) diluted 1:1000 and Hoechst 33342 1 μg/ml diluted in Antibody Dilution Buffer) were dispensed into each well. Samples were incubated for 2 hours at room temperature. Samples were washed 3 times with 100 μL/well of PBS using a Biotek EL406. Quantitative fluorescence imaging of ESR1 was carried out using a Cellomics Arrayscan V (Thermo). Fluorescence images of the samples (Channel 1: XF53 Hoechst (DNA stain); Channel 2: XF53 FITC (ESR1 stain)) were acquired using a Cellomics VTI Arrayscan using the Bioapplication “Compartmental Analysis” using the auto-exposure (based on DMSO control wells) setting “peak target percentile” set to 25% target saturation for both channels. Channel 1 (DNA stain) was used to define the nuclear region (Circ). Measurements of “Mean_CircAvgIntCh2”, which is the Alexafluor 488 fluorescence intensity (ESR1) within the nuclear region, was measured on a per cell basis and averaged over all the measured cells. Data analysis was carried out using Genedata Screener Software, with DMSO and 5 nM Fulvestrant treated samples being used to define the 0% and 100% changes in ESR1. The “Robust Fit” method was used to define the inflexion point of curve (EC50) and the plateau of the maximal effect (Sinf). Degradation data for exemplary Formula I compounds is reported as ER-alpha MCF7 HCS Sinf(%) values in Table 1.

[2] = MCF7, Table 1a, read-out: ER-alpha MCF7 HCS (EC50)
[3] = MCF7, Table 2, Comparator compounds, read-out: ER-alpha MCF7 HCS EC50

SMILES | EC50 (MCF7 cells; [2]) | ER-alpha MCF7 HCS (S inf) [1] | EC50 (MCF7 cells; [3])
C[C@@H]1Cc2c([nH]c3ccccc23)[C@@H](c2c(F)cc([C@@H](F)C3CN(CCCF)C3)cc2F)N1CC(F)(F)CO (single isomer, unassigned) [Compound 104] | 0.017 nM | −99.99% | 
C[C@@H]1Cc2c([nH]c3ccccc23)[C@@H](c2c(F)cc([C@H](F)C3CN(CCCF)C3)cc2F)N1CC(F)(F)CO (single isomer, unassigned) [Compound 105] | 0.021 nM | −97.71% | 
C[C@@H]1Cc2c([nH]c3ccc(F)cc23)[C@@H](c2c(F)cc([C@H](O)C3CN(CCCF)C3)cc2F)N1CC(F)(F)CO (single isomer, unassigned) [Compound 114] | 0.035 nM | −100.60% | 
C[C@@H]1Cc2c([nH]c3ccc(F)cc23)[C@@H](c2c(F)cc([C@@H](O)C3CN(CCCF)C3)cc2F)N1CC(F)(F)CO (single isomer, unassigned) [Compound 115] | 0.065 nM | −100.58% | 
C[C@@H]1Cc2c([nH]c3ccccc23)[C@@H](c2c(F)cc([C@H](O)C3CN(CCCF)C3)cc2F)N1CC(F)F (single isomer, unassigned) [Compound 121] | 0.068 nM | −98.21% | 
C[C@@H]1Cc2c([nH]c3ccccc23)[C@@H](c2c(F)cc([C@@H](O)C3CN(CCCF)C3)cc2F)N1CC(F)F (single isomer, unassigned) [Compound 122] | 0.035 nM | −98.05% | 
C[C@H]1Cc2c([nH]c3c(F)cccc23)[C@H](c2c(F)cc([C@H](O)C3CN(CCCF)C3)cc2F)N1CC(F)(F)CO (single isomer, unassigned) [Compound 131] | 7.64 nM | −95.59% | 
C[C@H]1Cc2c([nH]c3c(F)cccc23)[C@H](c2c(F)cc([C@@H](O)C3CN(CCCF)C3)cc2F)N1CC(F)(F)CO (single isomer, unassigned) [Compound 132] | 9.7 nM | −91% | 
C[C@@H]1Cc2c([nH]c3ccccc23)[C@@H](c2c(F)cc([C@@H](O)C3CN(CCCF)C3)cc2F)N1C[C@H](F)CO (single isomer, unassigned) [Compound 139] | 0.31 nM |  | 
C[C@@H]1Cc2c([nH]c3ccccc23)[C@@H](c2c(F)cc(NC3CN(CCCF)C3)cc2F)N1CC(F)(F)CO [Comparator compound A, 3-[(1R,3R)-1-[2,6-difluoro-4-[[1-(3-fluoropropyl)azetidin-3-yl]amino]phenyl]-3-methyl-1,3,4,9-tetrahydropyrido[3,4-b]indol-2-yl]-2,2-difluoro-propan-1-ol, reference compound] |  |  | 0.027 nM
C[C@@H]1Cc2c([nH]c3ccccc23)[C@@H](c2ccc([C@@H](O)C3CN(CCCF)C3)cc2)N1CC(C)(C)F [Comparator compound B, (S)-(4-((1R,3R)-2-(2-fluoro-2-methylpropyl)-3-methyl-2,3,4,9-tetrahydro-1H-pyrido[3,4-b]indol-1-yl)phenyl)(1-(3-fluoropropyl)azetidin-3-yl)methanol, reference compound] |  |  | 0.065 nM
C[C@@H]1Cc2c([nH]c3ccccc23)[C@@H](c2ccc([C@H](O)C3CN(CCCF)C3)cc2)N1CC(C)(C)F [Comparator compound C, (R)-(4-((1R,3R)-2-(2-fluoro-2-methylpropyl)-3-methyl-2,3,4,9-tetrahydro-1H-pyrido[3,4-b]indol-1-yl)phenyl)(1-(3-fluoropropyl)azetidin-3-yl)methanol, reference compound] |  |  | 0.12 nM
C[C@@H]1Cc2c([nH]c3ccccc23)[C@@H](c2c(F)cc([C@@H](F)C3CN(CCCF)C3)cc2F)N1CC(C)(C)F [Compound 102, (1R,3R)-1-(2,6-difluoro-4-((S)-fluoro(1-(3-fluoropropyl)azetidin-3-yl)methyl)phenyl)-2-(2-fluoro-2-methylpropyl)-3-methyl-2,3,4,9-tetrahydro-1H-pyrido[3,4-b]indole] | 0.137 nM |  | 
